Entries after “also recorded” stand apart in the source; their conditions may differ. Square brackets hold non-standard residues; d marks the D form. Ends that are not written are not given here.
Assays:
[1] = tested on: substance P-induced scratching behavior; assay: substance P-induced scratching behavior after intrathecal pre-administration of test peptide; format: in vivo, rat; conditions: for scratching behavior induced by substance P / suppressive effects on scratching as administration interval is prolonged: Example 2, FIG. 2; for scratching behavior induced by substance P / suppressive effects on scratching as administration interval is prolonged / scratching behavior induced by substance P / suppressive effects: 10^-3M peptide; for scratching behavior induced by substance P / scratching behavior induced by substance P / suppressive effects: SP 4 hours after peptide; for scratching behavior induced by substance P: control about 380 scratching; for suppressive effects on scratching as administration interval is prolonged: interval 8 hours and then 14 hours; for scratching behavior induced by substance P / suppressive effects: Example 3, FIG. 3, control 380 scratching; for number of scratching events induced by substance P, relative to control group (saline+SP = 100%): 10^-3M (10 nmol/10 μl) peptide intrathecal, 10^-3M SP 30 minutes after peptide; for number of scratching events induced by substance P, relative to control group (saline+SP = 100%) / number of scratching events induced by substance P, relative to control group: FIG. 1
Description: In Example 1, 10^−3M (10 nmol/10 μl) EKC/D or D-EKC/D (1), (2) or (3) was administered to intrathecally catheterized rats via catheters. After the predetermined time periods denoted on the horizontal axis in FIG. 1, the numbers of scratching events (scratching behavior) induced by intrathecal administration of 10^−3M (10 nmol/10 μl) substance P (hereafter, referred to as “SP”) were determined. Here, the expression “10^−3M (10 nmol/10 μl) EKC/D or D-EKC/D (1), (2), or (3) was administered” refers to a situation in which 10 μl in total of a solution (that is, 10^−3M solution) containing 10 nmol of EKC/D or D-EKC/D (1), (2), or (3) was all administered. The expression, “ . . . administration of 10^−3M substance P (10 nmol/10 μl)” refers to a situation in which 10 μl in total of a solution (that is, 10^−3M solution) containing 10 nmol of the substance was all administered. The same similarly applies below.
Meanwhile, saline (10 μl) was intrathecally administered to intrathecally catheterized rats via catheters and then, after 30 minutes, 10^−3M SP (10 nmol/10 μl) was intrathecally administered to the rats. The number of the thus induced scratching events was determined to be the number of scratching events in the control group. The control group is denoted with saline-4-SP in FIG. 1.
The vertical axis of the graph in FIG. 1 indicates changes in the numbers of scratching events (represented by relative values) due to administration of 10^−3M EKC/D or D-EKC/D (1), (2), or (3) when the number of scratching events (of untreated rats in a control group) induced by intrathecal administration of 10^−3M substance P was determined to be 100%. Meanwhile, the horizontal axis indicates the intervals between the administration of EKC/D, D-EKC/D (1), (2), or (3) and 10^−3M substance P. […]
The test was conducted with procedures similar to those in Example 1, except for 4 hours of interval between the administration of each test peptide and the administration of substance P. The concentration of each test peptide and that of substance P for administration were determined to be 10^−3M (10 nmol/10 μl), similarly to Example 1. The number of scratching events in the control group was determined with procedures similar to those in Example 1, such that substance P was administered at 30 minutes after administration of saline (10 μl) and then the number was determined.

[2] = tested on: SP-induced thermal hyperalgesia; assay: SP-induced thermal hyperalgesia (withdrawal latency) after intrathecal pre-administration of peptide; format: in vivo, rat; conditions: 10^-3M (10 nmol/10 μl) peptide intrathecal, FIG. 7
Text: In this test, the effects of intrathecal pre-administration with D-EKC/D (1), (2), and (3) on the induction of thermal hyperalgesia following intrathecal administration of SP were confirmed using as an index thermal hyperalgesia, which is one type of pain-related behavior. The effects can be evaluated based on withdrawal latency period, which is the time required for withdrawal response to take place after application of noxious thermal stimulation to plantar using infrared rays.
In Example 4, 10^−3M (10 nmol/10 μl) D-EKC/D (1), (2), or (3) was administered to intrathecally catheterized rats via catheters, intrathecal administration of 10^−6M (10 pmol/10 μl) SP was performed at 4 hours and at 8 hours after administration of D-EKC/D, the presence or the absence of hyperalgesia following intrathecal administration of SP was evaluated based on the time (latency period) required for withdrawal response to take place, the latency period following SP administration in rats pretreated with D-EKC/D and the latency period resulting from administration of SP alone were compared, and thus the effects of preadministration of D-EKC/D (1), (2), and (3) were evaluated.

[3] = 10^-3M peptide intrathecal, SP 1 hour after peptide
[4] = 10^-6M SP 4 hours later, saline about 20 seconds, SP about 13 seconds
[5] = 10^-3M (10 nmol/10 μl) Spantide I intrathecal, FIG. 6

Substance: His-Thr-Phe-Gln-DTrp-Leu-Leu-NH2 (HTFQXLL; HELM PEPTIDE1{H.T.F.Q.[dW].L.L.[am]}$$$$V2.0; N-terminus assumed; SMILES CC(C)C[C@H](NC(=O)[C@H](CC(C)C)NC(=O)[C@@H](Cc1c[nH]c2ccccc12)NC(=O)[C@H](CCC(N)=O)NC(=O)[C@H](Cc1ccccc1)NC(=O)[C@@H](NC(=O)[C@@H](N)Cc1c[nH]cn1)[C@@H](C)O)C(N)=O) [D-EKC/D (6)]
- scratching behavior induced by substance P [1]: significant suppressive effects were observed
- suppressive effects on scratching as administration interval is prolonged [1]: attenuated
- scratching behavior induced by substance P / suppressive effects [1]: attenuated

Substance: Phe-Gln-DTrp-Leu-Leu-NH2 (FQXLL; HELM PEPTIDE1{F.Q.[dW].L.L.[am]}$$$$V2.0; N-terminus assumed; SMILES CC(C)C[C@H](NC(=O)[C@H](CC(C)C)NC(=O)[C@@H](Cc1c[nH]c2ccccc12)NC(=O)[C@H](CCC(N)=O)NC(=O)[C@@H](N)Cc1ccccc1)C(N)=O) [D-EKC/D (8)]
- scratching behavior induced by substance P / suppressive effects [1]: Almost no suppressive effects; also recorded: almost the same as that of the control group

Substance: Ala-Tyr-Gln-Leu-Glu-His-Thr-DTrp-Gln-Gly-Leu-Leu-NH2 (AYQLEHTXQGLL; HELM PEPTIDE1{A.Y.Q.L.E.H.T.[dW].Q.G.L.L.[am]}$$$$V2.0; N-terminus assumed; SMILES CC(C)C[C@H](NC(=O)[C@H](CC(C)C)NC(=O)CNC(=O)[C@H](CCC(N)=O)NC(=O)[C@@H](Cc1c[nH]c2ccccc12)NC(=O)[C@@H](NC(=O)[C@H](Cc1c[nH]cn1)NC(=O)[C@H](CCC(=O)O)NC(=O)[C@H](CC(C)C)NC(=O)[C@H](CCC(N)=O)NC(=O)[C@H](Cc1ccc(O)cc1)NC(=O)[C@H](C)N)[C@@H](C)O)C(N)=O) [D-EKC/D (2)]
- number of scratching events induced by substance P, relative to control group (saline+SP = 100%) [1]: about 20%
- number of scratching events induced by substance P, relative to control group [1, 3]: slight tendency of restoration
- number of scratching events induced by substance P, relative to control group ([1]; 10^-3M peptide intrathecal, administration interval of 45 minutes): almost the same effects were exhibited
- effect on latency period following administration of SP [2, 4]: significantly attenuated
- effect on latency period following administration of SP ([2]; 10^-6M SP 8 hours later): significant attenuation

Substance: DArg-Pro-Lys-Pro-Gln-Gln-DTrp-Phe-DTrp-Leu-Leu-NH2 ([dR]PKPQQ[dW]F[dW]LL-NH2) [Spantide I, reference compound]
- duration of suppressive effects on substance P-induced scratching behavior [1, 5]: ≤ 30 min
- effect on substance P-induced scratching behavior [1, 5]: suppressed

Substance: Ala-Tyr-Gln-Leu-Glu-His-Thr-DTrp-Gln-DTrp-Leu-Leu-NH2 (AYQLEHTXQXLL; HELM PEPTIDE1{A.Y.Q.L.E.H.T.[dW].Q.[dW].L.L.[am]}$$$$V2.0; N-terminus assumed; SMILES CC(C)C[C@H](NC(=O)[C@H](CC(C)C)NC(=O)[C@@H](Cc1c[nH]c2ccccc12)NC(=O)[C@H](CCC(N)=O)NC(=O)[C@@H](Cc1c[nH]c2ccccc12)NC(=O)[C@@H](NC(=O)[C@H](Cc1c[nH]cn1)NC(=O)[C@H](CCC(=O)O)NC(=O)[C@H](CC(C)C)NC(=O)[C@H](CCC(N)=O)NC(=O)[C@H](Cc1ccc(O)cc1)NC(=O)[C@H](C)N)[C@@H](C)O)C(N)=O) [D-EKC/D (1)]
- number of scratching events induced by substance P, relative to control group (saline+SP = 100%) [1]: about 40%
- duration of suppressive effects on substance P-induced scratching behavior ([1]; 10^-3M peptide intrathecal, 10^-3M SP): almost the same as that of the EKC/D consisting only of L-type amino acids
- number of scratching events induced by substance P, relative to control group [1, 3]: disappeared
- effect on latency period following administration of SP [2, 4]: significantly attenuated
- effect on latency period following administration of SP ([2]; 10^-6M SP 8 hours later): differs from D-EKC/D (2) and (3) in duration of effectiveness

Substance: Thr-Phe-Gln-DTrp-Leu-Leu-NH2 (TFQXLL; HELM PEPTIDE1{T.F.Q.[dW].L.L.[am]}$$$$V2.0; N-terminus assumed; SMILES CC(C)C[C@H](NC(=O)[C@H](CC(C)C)NC(=O)[C@@H](Cc1c[nH]c2ccccc12)NC(=O)[C@H](CCC(N)=O)NC(=O)[C@H](Cc1ccccc1)NC(=O)[C@@H](N)[C@@H](C)O)C(N)=O) [D-EKC/D (7)]
- scratching behavior induced by substance P / suppressive effects [1]: attenuated; also recorded: minimum suppressive effects

Substance: Leu-Glu-His-Thr-Phe-Gln-DTrp-Leu-Leu-NH2 (LEHTFQXLL; HELM PEPTIDE1{L.E.H.T.F.Q.[dW].L.L.[am]}$$$$V2.0; N-terminus assumed; SMILES CC(C)C[C@H](NC(=O)[C@H](CC(C)C)NC(=O)[C@@H](Cc1c[nH]c2ccccc12)NC(=O)[C@H](CCC(N)=O)NC(=O)[C@H](Cc1ccccc1)NC(=O)[C@@H](NC(=O)[C@H](Cc1c[nH]cn1)NC(=O)[C@H](CCC(=O)O)NC(=O)[C@@H](N)CC(C)C)[C@@H](C)O)C(N)=O) [D-EKC/D (4)]
- scratching behavior induced by substance P [1]: never induced
- suppressive effects on scratching as administration interval is prolonged [1]: gradually attenuated
- suppressive effects compared with [D-Trp^10]-EKC/D consisting of 12 amino acids ([1]; Example 2 discussion): suppressive effects almost similar to those of [D-Trp^10]-EKC/D
- scratching behavior induced by substance P / suppressive effects [1]: attenuated

From US8853359B2, “Endokinin C/D-derived peptides” (University of Miyazaki, priority 2009, dated 2014)
